Test results as given in patent EP0859230A1, “Detection of analytes using electrochemistry” (priority 1997, dated 1998).

Experiments:
Antigentamycin = assay: End-point competitive microtiter plate assay with gentamycin-GOD, hydrogen peroxide peak measured in flow cell; format: binding; conditions: gentamycin concentrations as low as 5 ppb; 1:10 000 dilution of gentamycin-GOD conjugate
Description: The immunological reaction step is performed in a microtiter plate. Using GOD as the enzyme label, the final microtiter well solution will contain hydrogen peroxide, the amount of which is inversely proportional to the amount of free gentamycin present in the sample under uniform conditions (competitive assay approach). This solution is pumped through the flow cell yielding a current peak, the magnitude of which is directly proportional to the amount of hydrogen peroxide present. Since no enzyme label is present in the final solution, no further hydrogen peroxide generation occurs after removal of solution from the microtiter well, thus current peaks, as opposed to current steps are observed on liquid passage through the flow cell.
Microtiter plates were coated in carbonate/bicarbonate buffer pH 9.6 for 1 hour at 37°C, then washed and blocked with 0.5% w/v gelatin in PBS buffer pH 7.4. Plates were either used directly or stored at 4°C until required.
Primary incubations with gentamycin-GOD, with or without free gentamycin, and in milk or buffer (PBS pH 7.4) were performed for 1 hour at 37°C. Gentamycin-GOD concentrations were varied between 1:1000 and 1:20 000. […]
After a given time period for substrate conversion, 150 µl of solution was pumped through the flow cell using a peristaltic pump set at a constant flow rate of 300 µl/min. Responses were measured as peak heights in nA or mA. […]

[1] = tested on: monoclonal anti-gentamycin antibody; assay: Competitive flow-cell electrochemical immunoassay: free gentamycin vs gentamycin-GOD conjugate in milk; format: binding
Description: Strips of nitrocellulose were cut to the exact size of 0.4 x 0.9 cm. Strips were soaked in a solution of 5 µg/ml of monoclonal anti-gentamycin antibody in PBS buffer pH 7.4, for 1 hour at ambient temperature.
After incubation, strips were blocked in a 2% w/v BSA solution in PBS(pH 7.4) for 1 hour at ambient temperature.
Individual strips were removed from the blocking solution and mounted onto the working electrode surface, thus creating a complete sensor card.
Sensor cards were mounted into the flow cell, the strip of nitrocellulose being held in place by a rubber seal, used to prevent leakage during operation of the flow cell device.
One ml samples of milk were aliquoted, to which were added 25 µl of a: 1:1000 (A), 1:2000 (B) or 1:2500 (C) dilution of gentamycin-GOD conjugate (prepared with state of the art procedures).
Free gentamycin was then added to each milk sample, yielding solutions having gentamycin concentrations varying between 0 and 1000 ppb.
A pumping device was connected to the flow cell and the prepared milk samples were each tested with a new sensor card mounted in place.
The flow rate through the system was adjusted so that the complete milk sample passed through the system over a 3 minute time period. A 1 minute wash step was then performed with 0.1 % w/v Tween in 0.1M PBS (pH 7.4). Immediately after each wash step, 0.5M glucose in 0.1M PBS/ 0.1M KCl was passed through the flow cell and the electrochemical responses generated were recorded both as absolute values and as initial response-time velocities in nA/sec.
A 1:10 dilution of the MoAb stock solution was used to coat the nitro-cellulose strips. Gentamycin-glucose oxidase conjugate concentrations were varied from 1:4000 (exp.A) to 1:8000 (exp.B) to 1:10 000 (exp. C).

[2] = tested on: PBP (penicillin binding protein); assay: Competitive inhibition assay: penicillin vs 7-ACA-GOD on PBP-coated nitrocellulose strips, amperometric detection in flow cell; conditions: CV in percent in brackets; for Velocity (nA sec^1) Mean: over 200 sec; for Absolute response (µA) Mean (CV): over 500 sec
Description: Strips of nitrocellulose membrane were cut to the exact size of 0.4 x 0.9 cm. Strips were soaked in a solution of 5 mg/ml PBP (penicillin binding protein) in buffer (0.1M phosphate buffered saline (PBS), pH 7.4). The strips were left to soak for 1 hour at ambient temperature.
After incubation, strips were blocked in a 2% w/v bovine serum albumin (BSA) solution in PBS buffer (pH 7.4) for 1 hour at ambient temperature.
Individual strips were removed from the blocking solution and incubated for 5 minutes at 64°C in a 1:2000 dilution of 7-ACA-GOD stock solution in whole milk with or without free analyte (penicillin G) present.
Strips were washed for 20 seconds in PBS and placed onto the working electrode of the screen-printed sensor card.
The card was mounted into the flow cell or flowing liquid system and a 0.1M PBS solution was introduced, pumped at a constant rate through the flow cell. The working electrode was poised at a potential of +350 mV and the system allowed to achieve electrochemical equilibrium. A 0.1M glucose solution in 0.1M PBS/0.1M KCl was then pumped into the system. The flow was halted after 60 seconds. The electrochemical response of the system was monitored throughout this period.
Results can be expressed as total current increase in µA over a given time interval or can be interpreted as current increase per unit time (µA/sec).
Nitro-cellulose strips were prepared in two separate batches. […] Responses are also recorded as 'velocities' whereby the maximum current versus time slope is measured during the period of glucose flow across the working electrode surface (expressed as nA/sec). Results are also expressed as a percentage of the signal of the zero ppb penicillin positive control, that is, the zero inhibited response that therefore yields a 100% response value.

[3] = Exp. A (conjugate 1:4000), gentamycin 10 ppb in milk, duplicate
[4] = Exp. A (conjugate 1:4000), gentamycin 100 ppb in milk, duplicate
[5] = Exp. A (conjugate 1:4000), gentamycin 1000 ppb in milk, duplicate
[6] = Exp. B (conjugate 1:8000), gentamycin 10 ppb in milk, duplicate
[7] = Exp. B (conjugate 1:8000), gentamycin 100 ppb in milk, duplicate
[8] = Exp. C (conjugate 1:10 000), gentamycin 10 ppb in milk, triplicate
[9] = Exp. C (conjugate 1:10 000), gentamycin 100 ppb in milk, triplicate
[10] = Batch 1, penicillin 100 ppb in whole milk, n=2
[11] = Batch 2, penicillin 10 ppb in whole milk, n=3
[12] = Batch 2, penicillin 100 ppb in whole milk, n=2
[13] = Overall, penicillin 100 ppb in whole milk, n=4

## gentamycin
Antigentamycin
  inhibition of the positive signal: Considerable inhibition
[1]; [3]
  Absolute response (µA) Mean value: 3217 µA
  Velocity (nA sec^1) Mean value: 36.0 nA sec^1
[1]; [4]
  Absolute response (µA) Mean value: 3050 µA
  Velocity (nA sec^1) Mean value: 22.7 nA sec^1
[1]; [5]
  Absolute response (µA) Mean value: 1350 µA
  Velocity (nA sec^1) Mean value: 8.7 nA sec^1
[1]; [6]
  Absolute response (µA) Mean value: 2438 µA
  Velocity (nA sec^1) Mean value: 18.0 nA sec^1
[1]; [7]
  Absolute response (µA) Mean value: 2025 µA
  Velocity (nA sec^1) Mean value: 14.3 nA sec^1
[1]; [8]
  Absolute response (µA) Mean value: 1868 µA
  Velocity (nA sec^1) Mean value: 10.8 nA sec^1
[1]; [9]
  Absolute response (µA) Mean value: 1333 µA
  Velocity (nA sec^1) Mean value: 6.0 nA sec^1

## CC1(C)S[C@@H]2[C@H](NC(=O)Cc3ccccc3)C(=O)N2[C@H]1C(=O)O [Penicillin, penicillin G]
[2]; [10]
  Velocity (nA sec^1) Mean: 0.209 (12.6) nA sec^1
  Absolute response (µA) Mean (CV): 0.087 (35.8) µA
[2]; [11]
  Velocity (nA sec^1) Mean: 0.151 (32.0) nA sec^1
  Absolute response (µA) Mean (CV): 0.064 (17.7) µA
[2]; [12]
  Velocity (nA sec^1) Mean: 0.062 (5.7) nA sec^1
  Absolute response (µA) Mean (CV): 0.026 (21.8) µA
[2]; Overall (batch 1 + batch 2), penicillin 10 ppb in whole milk, n=3
  Absolute response (µA) Mean (CV): 0.064 (17.7) µA
[2]; Overall, penicillin 10 ppb in whole milk, n=3
  Velocity (nA sec^1) Mean: 0.151 (32.0) nA sec^1
[2]; [13]
  Velocity (nA sec^1) Mean: 0.135 (64.9) nA sec^1
  Absolute response (µA) Mean (CV): 0.057 (70.2) µA
